In article PMC10046687, “Residues of Legume AG41 Peptide Crucial to Its Bio-Insecticidal Activity” (Biomolecules, 2023):
Like-named read-outs stand apart in the source and are kept apart here. Bridge positions count the residues as written; N and C are the ends. Ends that are not written are not given here.

Experiments:
[1] = biological target: PA1b receptor; experiment: Competitive ligand binding with 125I-PA1b on microsomal protein; conditions: competition with 0.4 nM 125I-PA1b, 20 µg microsomal protein per assay, peptide 0.01 to 1000 nM, mean ± standard error, read-out: Ki (affinity to the PA1b receptor)
Protocol: To evaluate the affinity of synthetic AG41 and its mutants to PA1b receptor, ligand binding studies were conducted ^125I-toxin [29]. […] Total binding was assessed using 20 µg per assay of microsomal protein (sedimenting at 45,000 g) and 0.4 nM of I^125-PA1b, while in the non-specific binding assays 1000 nM of unlabeled AG41 or alanine mutant peptide was added. The level of specific binding (i.e., total binding minus non-specific binding) was estimated based on three replicates. Competitive experiments were performed with 0.4 nM ^125I-PA1b (specific radioactivity of approximately 1000 Ci.mmol^−1) and competition was performed with AG41 and its alanine mutant peptides at concentrations ranging from 0.01 to 1000 nM.
(§1) The experimental Ki and LD5O data were assessed separately by non-linear regression analysis using the SIMFIT software package. Biological results are expressed as mean ± S.E. (standard error).

[2] = tested on: Spodoptera frugiperda Sf9 insect cells; experiment: Viability assay (MTT) on cultured Sf9 insect cells; format: cell-based; conditions: 24 h exposure, 27 °C, each concentration in triplicate, mean ± standard error, SEM
Protocol: Viability assays were performed on Spodoptera frugiperda Sf9 insect cells in culture using the 3-(4,5-dimethylthiazol-2-yl)-2,5-diphenyltetrazolium bromide (MTT) protocol. Briefly, Sf9 cells lines were grown at 27 °C in Lonza’s culture medium, supplemented with 5% fetal bovine serum (FBS) and 0.1% gentamicin. Sf9 cells were seeded, in 96-well plates, 24 h prior to the experiments (15,000 cells/well) and were exposed to increasing concentrations of AG41 and its alanine mutant peptides for 24 h. Each concentration was performed in triplicate. Cell viability was determined by a colorimetric assay based on the ability of viable cells to reduce MTT. Cells were loaded with MTT solution (0.5 mg ml^−^1) and incubated at 27 °C for 2 h. Cell homogenates were used to measure absorbance at 550 nm using a microplate reader (MR 7000, Dynatech Laboratories Inc., Richmond, CA, USA).
as §1

Sequence: ASCPNVGAVCSPAETKPCGNVKDCRCLPWGLFFGTCINPTG (also: bicyclic or more (positions not given here)) [F13A, single point alanine mutant of AG41 at Phe-13]
- Ki [1]: > 1000 nM

Sequence: ASCPNVGAVCSPFATKPCGNVKDCRCLPWGLFFGTCINPTG (also: bicyclic or more (positions not given here)) [E14A, single point alanine mutant of AG41 at Glu-14]
- Ki ([1]; SEM): 1.2 ± 1.3 nM

Sequence: ASCPNVGAVCSPFETAPCGNVKDCRCLPWGLFFGTCINPTG (disulfide 3-24, 10-26, 18-36) [K16A]
- Ki ([1]; SEM): 3.6 ± 1.6 nM
- LD50 (insect cell toxicity) [2]: 10.0 ± 4.0 nM

Sequence: ASCPNVGAVCSPFETKPCGNVADCRCLPWGLFFGTCINPTG (disulfide 3-24, 10-26, 18-36) [K22A]
- Ki ([1]; SEM): 3.2 ± 1.7 nM
- LD50 (insect cell toxicity) [2]: 14.2 ± 6.3 nM

Sequence: ASCPNVGAVCSPFETKPCGNVKACRCLPWGLFFGTCINPTG (disulfide 3-24, 10-26, 18-36) [D23A]
- Ki ([1]; SEM): 1.2 ± 1.6 nM
- LD50 (insect cell toxicity) [2]: 24 ± 9 nM

Sequence: ASCPNVGAVCSPFETKPCGNVKDCACLPWGLFFGTCINPTG (also: bicyclic or more (positions not given here)) [R25A, single point alanine mutant of AG41 at Arg-25]
- Ki [1]: > 1000 nM

Sequence: ASCPNVGAVCSPFETKPCGNVKDCRCAPWGLFFGTCINPTG (disulfide 3-24, 10-26, 18-36) [L27A]
- Ki ([1]; SEM): 486 ± 11 nM
- LD50 (insect cell toxicity) [2]: 907 ± 46 nM

Sequence: ASCPNVGAVCSPFETKPCGNVKDCRCLPAGLFFGTCINPTG (disulfide 3-24, 10-26, 18-36) [W29A]
- Ki ([1]; SEM): 36.3 ± 6.7 nM
- LD50 (insect cell toxicity) [2]: 89.0 ± 3.7 nM

Sequence: ASCPNVGAVCSPFETKPCGNVKDCRCLPWGAFFGTCINPTG (also: bicyclic or more (positions not given here)) [L31A, single point alanine mutant of AG41 at Leu-31]
- Ki ([1]; SEM): 263 ± 8 nM

Sequence: ASCPNVGAVCSPFETKPCGNVKDCRCLPWGLAFGTCINPTG (disulfide 3-24, 10-26, 18-36) [F32A]
- Ki ([1]; SEM): 39.8 ± 15 nM
- LD50 (insect cell toxicity) [2]: 122 ± 12 nM

Sequence: ASCPNVGAVCSPFETKPCGNVKDCRCLPWGLFAGTCINPTG (disulfide 3-24, 10-26, 18-36) [F33A]
- Ki ([1]; SEM): 15 ± 4.8 nM
- LD50 (insect cell toxicity) [2]: 210 ± 8 nM

Sequence: ASCPNVGAVCSPFETKPCGNVKDCRCLPWGLFFGTCINPTG (disulfide 3-24, 10-26, 18-36) [AG41]
- Ki ([1]; SEM): 1.3 ± 0.6 nM
- LD50 (insect cell toxicity) [2]: 5.6 ± 1.8 nM
